Test results reported in patent US20210317092A1 (BAYER PHARMA AKTIENGESELLSCHAFT, priority 2016, published 2021).
Read-outs that look alike come from different tables or passages of the source.

Columns and labels:
[1] = biological target: T1, human Bradykinin B1 receptor (Homo sapiens, UniProt P46663); experiment: Calcium flux Assay (FLIPR) with recombinant CHO-K1 cells expressing human Bradykinin B1 receptor, in presence (hB1 IC50) or absence (hB1 free IC50) of 0.1% BSA; format: cell-based
T1 construct: host or cells: CHO-K1
T1 sequence (P46663 1-353): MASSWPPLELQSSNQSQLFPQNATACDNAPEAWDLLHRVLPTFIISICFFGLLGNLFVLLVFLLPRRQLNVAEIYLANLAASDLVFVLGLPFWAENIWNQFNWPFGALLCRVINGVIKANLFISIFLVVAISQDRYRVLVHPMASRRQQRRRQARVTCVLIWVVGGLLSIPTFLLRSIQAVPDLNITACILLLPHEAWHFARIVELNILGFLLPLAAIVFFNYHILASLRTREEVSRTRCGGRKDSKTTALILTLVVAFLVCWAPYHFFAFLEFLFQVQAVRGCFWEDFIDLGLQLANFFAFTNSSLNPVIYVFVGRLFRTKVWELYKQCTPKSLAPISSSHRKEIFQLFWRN

[2] = biological target: T2, native human Bradykinin B1 receptor (Homo sapiens, UniProt P46663); experiment: Calcium flux Assay (FLIPR) with human fibroblasts expressing Bradykinin B1 receptor (hB1 IMR-90); format: cell-based; details: IMR-90 human fibroblasts expressing native Bradykinin B1 receptor
T2 construct: which express native human Bradykinin B1 receptor after induction with human IL-10; Coriell Institute; host or cells: IMR-90 human foetal lung fibroblasts, cytokine-induced
T2 sequence (P46663 1-353): T1 sequence (P46663 1-353)
How it was run: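 IMR-90 human foetal lung fibroblasts induced with 0.35 ng/mL […] for 3 h, Fluo-4/AM-loaded, preincubated with compound (8 concentrations, triplicate) for 30 min at 28 °C, then challenged with Lys-(Des-Arg)-bradykinin at EC90. Ca2+ fluorescence was read at 538 nm; full inhibition set by 20 µM Lys-(Des-Arg-Leu)-bradykinin; IC50 derived.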

[3] = in absence of 0.1% BSA, read-out: hB1 free IC50
[4] = in presence of 0.1% BSA, read-out: hB1 IC50

Row | IC50 [1, 3] [nM] | IC50 [1, 4] [nM] | IC50 [2] [nM] | SMILES
1 | 3.64 | 26.2 | 18.6 | COc1cncc(-c2ccc(NC(=O)C3(c4cccc(Cl)c4)CC3)cc2-c2nnn[nH]2)c1 [Example 153, 1-(3-chlorophenyl)-N-[4-(5-methoxypyridin-3-yl)-3-(1H-tetrazol-5-yl)phenyl] cyclopropane-carboxamide]
2 | 36.6 | 27.5 | 84.6 | CCOc1cncc(-c2ccc(NC(=O)C3(c4ccc(C(F)(F)F)cc4)CC3)cc2-c2nnn[nH]2)c1 [Example 156, N-[4-(5-ethoxypyridin-3-yl)-3-(1H-tetrazol-5-yl)phenyl]-1-[4-(trifluoromethyl)phenyl] cyclopropane-carboxamide]
3 | 8.13 | 47.7 | 26.7 | CCOc1ncc(-c2ccc(NC(=O)C3(c4cccc(Cl)c4)CC3)cc2-c2nnn[nH]2)cc1C [Example 160, 1-(3-chlorophenyl)-N-[4-(6-ethoxy-5-methylpyridin-3-yl)-3-(1H-tetrazol-5-yl)phenyl] cyclopropane-carboxamide]
4 | 14.2 | 28.1 | 28.9 | CCOc1ncc(-c2ccc(NC(=O)C3(c4cccc(Cl)c4)CC3)cc2-c2nnn[nH]2)cc1F [Example 163, 1-(3-chlorophenyl)-N-[4-(6-ethoxy-5-fluoropyridin-3-yl)-3-(1H-tetrazol-5-yl)phenyl] cyclopropane-carboxamide]
5 | 58.6 | 88.1 | 27.7 | CN(C)c1ccc(-c2ccc(NC(=O)C3(c4cccc(Cl)c4F)CC3)cc2-c2nnn[nH]2)cn1 [Example 168, 1-(3-chloro-2-fluorophenyl)-N-{4-[6-(dimethylamino)pyridin-3-yl]-3-(1H-tetrazol-5-yl)phenyl} cyclopropane-carboxamide]
6 | 422 | 358 | 281 | O=C(Nc1ccc(-c2ccnc(C(F)(F)F)c2)c(-c2nnn[nH]2)c1)C1(c2cccc(Cl)c2)CC1 [Example 171, 1-(3-chlorophenyl)-N-{3-(1H-tetrazol-5-yl)-4-[2-(trifluoromethyl)pyridin-4-yl]phenyl} cyclopropane-carboxamide]
7 | 86.5 |  | 92.4 | O=C(Nc1ccc(-c2ccnc(C(F)(F)F)c2)c(-c2nnn[nH]2)c1)C1(c2ccc(C(F)(F)F)cc2F)CC1 [Example 173, 1-[2-fluoro-4-(trifluoromethyl)phenyl]-N-{3-(1H-tetrazol-5-yl)-4-[2-(trifluoromethyl)pyridin-4-yl]phenyl} cyclopropane-carboxamide]
8 | 216 |  | 687 | O=C(Nc1ccc(-c2ccnc(C(F)(F)F)c2)c(-c2nnn[nH]2)c1)C1(c2ccc(Cl)cc2F)CC1 [Example 175, 1-(4-chloro-2-fluorophenyl)-N-{3-(1H-tetrazol-5-yl)-4-[2-(trifluoromethyl)pyridin-4-yl]phenyl} cyclopropane-carboxamide]
9 | 20.8 | 14.8 | 7.29 | CCc1cc(-c2ccc(NC(=O)C3(c4cccc(Cl)c4)CC3)cc2-c2nnn[nH]2)ccn1 [Example 181, 1-(3-chlorophenyl)-N-[4-(2-ethylpyridin-4-yl)-3-(1H-tetrazol-5-yl)phenyl] cyclopropane-carboxamide]
10 | 54.4 | 33 | 11.1 | CCOc1ncc(-c2ccc(NC(=O)C3(c4cccc(Cl)c4F)CC3)cc2-c2nnn[nH]2)cn1 [Example 183, 1-(3-chloro-2-fluorophenyl)-N-[4-(2-ethoxypyrimidin-5-yl)-3-(1H-tetrazol-5-yl)phenyl] cyclopropane-carboxamide]
11 | 24.6 | 50.5 | 22.3 | CCOc1ncc(-c2ccc(NC(=O)C3(c4cccc(Cl)c4)CC3)cc2-c2nnn[nH]2)cn1 [Example 184, 1-(3-chlorophenyl)-N-[4-(2-ethoxypyrimidin-5-yl)-3-(1H-tetrazol-5-yl)phenyl] cyclopropane-carboxamide]
